Experimental data published in article PMC4832243, “Discovery of Potent VEGFR-2 Inhibitors based on Furopyrimidine and Thienopyrimidne Scaffolds as Cancer Targeting Agents” (Scientific Reports, 2016).

Tests used:
VEGFR-2 (KDR) = molecular target: T1, VEGFR-2 (KDR) (Homo sapiens, UniProt P35968); test: In vitro VEGFR-2 tyrosine kinase activity (Kinase-Glo Plus luminescence, BPS Bioscience); format: biochemical; conditions: for IC50: 5 concentrations 1 nM - 10 μM; for inhibition at 10 µM: single dose concentration of 10 μM
T1 construct: purchased BPS Bioscience 40301

[1] = tested on: HUVEC umbilical vein endothelial cells; test: In vitro HUVEC anti-proliferative assay (alamarBlue); format: cell-based; conditions: Homo sapiens, HUVEC proliferation at 10 μM, 72 hours; for activity at 10 µM: read-out: % Cell growth; for inhibition at 10 µM: read-out: % Cell inhibition
c-Src = c-Src (Homo sapiens, UniProt P12931); test: In vitro multiple-kinase inhibition assay, c-Src; format: biochemical
Description: (§1) In vitro multiple-kinase inhibition assay. […] Kinase enzymatic activity of the tested compounds was evaluated against a reference kinase inhibitor at 10 μM (Table 2).
(§2) The multiple kinases activity at single dose concentration of 10 μM was performed, c-Kit, c-Raf, c-Src, RET served as the enzyme source. […] Kinase-Glo Plus Luminescence kinase assay kit (Promega#V3772), ADP-Glo Luminescence assay kit was used for c-kit assay (Supplementary). […]
(§3) mM MgCl2, 0.1 mg/ml BSA, 1 mM DTT, 10 µM ATP, Kinase substrate and VEGFR. After the enzymatic reaction, 50 µl of Kinase-Glo Plus Luminescence kinase assay solution (Promega) was added to each reaction and incubate the plate for 5 minutes at room temperature.
(§4) Luminescence signal was measured using a BioTek Synergy 2 microplate reader. VEGFR activity assays were performed in duplicate at each concentration.
(§5) The luminescence data were analyzed using the computer software, Graphpad Prism. The difference between luminescence intensities in the absence of VEGFR (Lut) and in the presence of VEGFR (Luc) was defined as 100 % activity (Lut – Luc). Using luminescence signal (Lu) in the presence of the compound, % activity was calculated as:
(§6) % activity = {(Lut - Lu)/(Lut - Luc)}×100%, where Lu= the luminescence intensity in the […]
(§7) IC50 determination for inhibitor against VEGFR was calculated. The values of % activity versus a series of compound concentrations (1 nM - 10 nM - 100 nM - 1 µM - 10 µM) were then […]
(§8) or Hill coefficient. The IC50 value was determined by the concentration causing a half-maximal […]
(§9) In vitro multiple-kinase inhibition assay
(§10) Luminescence signal was measured using a BioTek Synergy 2 microplate reader […]
(§11) The luminescence data were analyzed using the same computer software and the same protocol

c-Kit = c-Kit (Homo sapiens, UniProt P10721); test: In vitro multiple-kinase inhibition assay, c-Kit (ADP-Glo); format: biochemical
Description: as §1, §2, §3, §4, §5, §6, §7, §8, §9
The assay was performed using the same conditions for VEGFR-2 activity assay (section 5.2.1.1). The assays for c-Kit was an exception, it was performed using ADP-Glo Kinase assay reagents (Promega). It measures kinase activity by quantitating the ADP amount produced from the enzymatic reaction. The luminescent signal from the assay is correlated with the amount of ADP present and is directly correlated with the amount of kinase activity. Other conditions are same to the previous section except the final reaction volume was reduced to 25 µl. After the 40 min kinase reaction at 30 °C, 25 µl of ADP-Glo reagent was added and incubated for 45 min at room temperature followed by another 50 min incubation with 50 µl of Kinase detection mixture.
as §10, §11

c-Raf = c-Raf (Homo sapiens, UniProt P04049); test: In vitro multiple-kinase inhibition assay, c-Raf; format: biochemical
Description: as §1, §2, §3, §4, §5, §6, §7, §8, §9, §10, §11

RET = RET (Homo sapiens, UniProt P07949); test: In vitro multiple-kinase inhibition assay, RET; format: biochemical
Description: as §1, §2, §3, §4, §5, §6, §7, §8, §9, §10, §11

[2] = tested on: Ehrlich ascites carcinoma (EAC) solid tumor; test: In vivo anticancer activity, EAC solid tumor murine model; set-up: species or system Swiss albino mice; conditions: 10 mg/kg/day po, once daily for 8 consecutive days
Description: Animals. Female Swiss albino mice weighing 15–20 g were used in the present study. They were obtained from the animal breeding laboratory, National Cancer Institute (NCI), Cairo University, Egypt. Animals were kept in our animal facility, faculty of pharmacy, Ain Shams university at 25 ± 2 °C and a relative humidity of 40–45% with alternative day and night cycles of 12 h each. Animals had free access to pellet food and water ad libitum. Standard diet pellets (El-Nasr, Abu Zaabal, Egypt) contained not less than 20% protein, 5% fiber, 3.5% fat, 6.5% ash and a vitamin mixture. Animal care and experiments were conducted in accordance with the protocols approved by the Ethics Research Committee, Faculty of Pharmacy, Ain Shams University, following the Institutional Animal Care and Use Committee guidelines.
Tumor cells preparation and transplantation. Ehrlich ascites carcinoma (EAC) cells were obtained from NCI, Cairo University, Egypt. EAC cells were maintained in the ascitic form in Swiss albino mice by intraperitoneal transplantation of each mouse every 10 days. Ascitic fluid was drawn from tumor-bearing mice at the log phase (7–8th day of tumor bearing) of the tumor cells. The freshly drawn fluid was diluted with ice-cold sterile isotonic saline. 200 μl tumor cell suspension containing 2 × 10^6 tumor cells were then subcutaneously injected in each mouse.
Experimental design. Swiss albino mice were divided into six groups (n = 6 per group).
Evaluation of effectiveness. Tumor growth curve was drawn according to the change in tumor volume from first day of treatment (day 0) till day 7. Longest and shortest diameters of the solid tumor were monitored using a digital vernier caliper. Tumor volume (TV) of each animal was calculated using the following formula: […]
Tumor growth inhibition (TGI) was calculated as follows.
RTV = (Tumor volume at the day of measurement)/Tumor volume at the initial day.
Histopathological Examination
thickness by slidge microtome.
graded ethanol solutions.

T1 sequence (P35968 20-1356): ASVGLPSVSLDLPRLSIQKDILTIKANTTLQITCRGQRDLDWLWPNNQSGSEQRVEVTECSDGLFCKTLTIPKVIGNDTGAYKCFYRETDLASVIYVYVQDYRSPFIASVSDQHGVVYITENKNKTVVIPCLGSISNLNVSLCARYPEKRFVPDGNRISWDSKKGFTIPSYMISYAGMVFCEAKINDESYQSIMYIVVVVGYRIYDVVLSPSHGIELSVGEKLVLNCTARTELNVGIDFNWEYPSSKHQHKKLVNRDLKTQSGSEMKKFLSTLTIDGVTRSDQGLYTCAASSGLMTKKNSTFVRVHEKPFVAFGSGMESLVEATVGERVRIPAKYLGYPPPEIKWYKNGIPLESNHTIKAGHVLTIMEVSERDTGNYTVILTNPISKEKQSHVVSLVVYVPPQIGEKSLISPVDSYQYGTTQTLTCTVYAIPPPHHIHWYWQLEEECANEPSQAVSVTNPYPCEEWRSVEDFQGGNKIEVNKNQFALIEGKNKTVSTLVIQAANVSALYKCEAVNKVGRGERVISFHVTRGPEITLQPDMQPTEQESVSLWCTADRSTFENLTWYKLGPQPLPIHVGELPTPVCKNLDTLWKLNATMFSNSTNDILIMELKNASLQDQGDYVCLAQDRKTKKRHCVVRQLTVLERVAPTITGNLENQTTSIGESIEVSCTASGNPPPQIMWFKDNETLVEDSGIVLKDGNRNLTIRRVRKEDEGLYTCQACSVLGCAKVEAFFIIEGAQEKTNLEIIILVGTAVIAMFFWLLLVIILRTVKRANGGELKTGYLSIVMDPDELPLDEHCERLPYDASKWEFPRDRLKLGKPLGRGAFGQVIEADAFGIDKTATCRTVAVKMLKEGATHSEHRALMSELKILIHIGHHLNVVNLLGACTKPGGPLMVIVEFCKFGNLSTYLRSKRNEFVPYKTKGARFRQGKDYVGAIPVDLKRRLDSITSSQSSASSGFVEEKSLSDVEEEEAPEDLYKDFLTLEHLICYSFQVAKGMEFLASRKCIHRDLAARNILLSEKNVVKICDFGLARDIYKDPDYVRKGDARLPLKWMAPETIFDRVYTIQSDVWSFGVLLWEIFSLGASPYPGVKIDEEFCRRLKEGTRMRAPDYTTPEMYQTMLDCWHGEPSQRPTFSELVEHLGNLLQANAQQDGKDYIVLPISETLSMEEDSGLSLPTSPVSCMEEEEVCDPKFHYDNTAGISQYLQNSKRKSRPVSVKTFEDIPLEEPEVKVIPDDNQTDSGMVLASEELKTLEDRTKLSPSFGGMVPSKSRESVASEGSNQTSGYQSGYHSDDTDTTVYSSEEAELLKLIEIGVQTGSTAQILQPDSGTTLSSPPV
Chain of c-Src (P12931 whole entry, species assumed): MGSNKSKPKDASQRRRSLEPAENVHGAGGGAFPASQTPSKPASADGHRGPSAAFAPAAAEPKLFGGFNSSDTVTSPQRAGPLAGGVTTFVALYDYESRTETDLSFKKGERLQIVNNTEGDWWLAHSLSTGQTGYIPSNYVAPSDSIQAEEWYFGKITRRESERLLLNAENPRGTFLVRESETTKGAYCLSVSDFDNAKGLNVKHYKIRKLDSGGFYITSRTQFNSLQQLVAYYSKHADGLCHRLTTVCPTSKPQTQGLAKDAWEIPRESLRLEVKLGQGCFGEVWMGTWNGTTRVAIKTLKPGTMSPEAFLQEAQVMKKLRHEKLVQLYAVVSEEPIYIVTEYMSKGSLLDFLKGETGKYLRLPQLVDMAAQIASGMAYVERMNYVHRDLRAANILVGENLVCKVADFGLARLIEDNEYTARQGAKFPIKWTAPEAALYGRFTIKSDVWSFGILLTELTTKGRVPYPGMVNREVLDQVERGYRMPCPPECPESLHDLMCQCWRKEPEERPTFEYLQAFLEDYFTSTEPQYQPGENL
Chain of c-Raf (P04049 whole entry, species assumed): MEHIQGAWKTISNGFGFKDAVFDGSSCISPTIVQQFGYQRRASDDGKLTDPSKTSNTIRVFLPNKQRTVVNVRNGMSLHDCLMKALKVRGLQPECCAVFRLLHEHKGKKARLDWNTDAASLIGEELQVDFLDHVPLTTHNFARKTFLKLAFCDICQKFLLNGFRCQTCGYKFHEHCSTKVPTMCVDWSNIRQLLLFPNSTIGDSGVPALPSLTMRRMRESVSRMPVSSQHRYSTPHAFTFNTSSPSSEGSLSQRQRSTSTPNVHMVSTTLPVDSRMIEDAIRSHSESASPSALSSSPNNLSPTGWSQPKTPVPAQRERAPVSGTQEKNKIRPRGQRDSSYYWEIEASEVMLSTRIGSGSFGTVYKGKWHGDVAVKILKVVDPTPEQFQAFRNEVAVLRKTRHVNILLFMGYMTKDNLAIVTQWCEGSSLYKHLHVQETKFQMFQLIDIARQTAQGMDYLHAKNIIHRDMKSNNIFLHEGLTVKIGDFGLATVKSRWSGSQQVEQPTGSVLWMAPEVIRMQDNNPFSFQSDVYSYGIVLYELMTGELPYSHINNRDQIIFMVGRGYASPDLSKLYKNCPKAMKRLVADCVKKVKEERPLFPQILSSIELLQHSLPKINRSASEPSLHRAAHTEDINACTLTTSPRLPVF
Chain of c-Kit (P10721 26-976): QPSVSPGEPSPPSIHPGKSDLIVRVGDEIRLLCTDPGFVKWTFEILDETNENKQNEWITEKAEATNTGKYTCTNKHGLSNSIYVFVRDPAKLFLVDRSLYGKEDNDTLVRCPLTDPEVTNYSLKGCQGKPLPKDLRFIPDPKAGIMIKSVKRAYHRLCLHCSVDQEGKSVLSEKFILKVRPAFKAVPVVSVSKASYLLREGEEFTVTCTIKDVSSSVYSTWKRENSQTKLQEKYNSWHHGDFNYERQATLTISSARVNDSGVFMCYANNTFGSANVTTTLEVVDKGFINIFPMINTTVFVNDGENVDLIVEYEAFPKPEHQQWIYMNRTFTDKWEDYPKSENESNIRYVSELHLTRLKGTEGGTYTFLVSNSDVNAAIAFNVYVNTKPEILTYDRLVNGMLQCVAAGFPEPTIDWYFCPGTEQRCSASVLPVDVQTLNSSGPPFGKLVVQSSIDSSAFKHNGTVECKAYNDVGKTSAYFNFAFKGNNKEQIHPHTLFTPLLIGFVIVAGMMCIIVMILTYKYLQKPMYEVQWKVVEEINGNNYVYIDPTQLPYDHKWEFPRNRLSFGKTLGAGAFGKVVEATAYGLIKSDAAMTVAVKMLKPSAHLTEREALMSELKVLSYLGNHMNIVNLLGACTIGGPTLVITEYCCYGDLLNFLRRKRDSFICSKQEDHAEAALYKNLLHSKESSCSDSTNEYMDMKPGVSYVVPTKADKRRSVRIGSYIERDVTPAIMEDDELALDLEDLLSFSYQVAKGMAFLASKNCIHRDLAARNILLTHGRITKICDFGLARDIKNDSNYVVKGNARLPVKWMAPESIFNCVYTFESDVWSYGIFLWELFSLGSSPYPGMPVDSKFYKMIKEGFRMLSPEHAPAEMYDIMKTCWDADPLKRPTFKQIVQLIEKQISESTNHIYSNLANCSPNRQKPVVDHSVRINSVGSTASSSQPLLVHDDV
Chain of RET (P07949 29-1114, species assumed): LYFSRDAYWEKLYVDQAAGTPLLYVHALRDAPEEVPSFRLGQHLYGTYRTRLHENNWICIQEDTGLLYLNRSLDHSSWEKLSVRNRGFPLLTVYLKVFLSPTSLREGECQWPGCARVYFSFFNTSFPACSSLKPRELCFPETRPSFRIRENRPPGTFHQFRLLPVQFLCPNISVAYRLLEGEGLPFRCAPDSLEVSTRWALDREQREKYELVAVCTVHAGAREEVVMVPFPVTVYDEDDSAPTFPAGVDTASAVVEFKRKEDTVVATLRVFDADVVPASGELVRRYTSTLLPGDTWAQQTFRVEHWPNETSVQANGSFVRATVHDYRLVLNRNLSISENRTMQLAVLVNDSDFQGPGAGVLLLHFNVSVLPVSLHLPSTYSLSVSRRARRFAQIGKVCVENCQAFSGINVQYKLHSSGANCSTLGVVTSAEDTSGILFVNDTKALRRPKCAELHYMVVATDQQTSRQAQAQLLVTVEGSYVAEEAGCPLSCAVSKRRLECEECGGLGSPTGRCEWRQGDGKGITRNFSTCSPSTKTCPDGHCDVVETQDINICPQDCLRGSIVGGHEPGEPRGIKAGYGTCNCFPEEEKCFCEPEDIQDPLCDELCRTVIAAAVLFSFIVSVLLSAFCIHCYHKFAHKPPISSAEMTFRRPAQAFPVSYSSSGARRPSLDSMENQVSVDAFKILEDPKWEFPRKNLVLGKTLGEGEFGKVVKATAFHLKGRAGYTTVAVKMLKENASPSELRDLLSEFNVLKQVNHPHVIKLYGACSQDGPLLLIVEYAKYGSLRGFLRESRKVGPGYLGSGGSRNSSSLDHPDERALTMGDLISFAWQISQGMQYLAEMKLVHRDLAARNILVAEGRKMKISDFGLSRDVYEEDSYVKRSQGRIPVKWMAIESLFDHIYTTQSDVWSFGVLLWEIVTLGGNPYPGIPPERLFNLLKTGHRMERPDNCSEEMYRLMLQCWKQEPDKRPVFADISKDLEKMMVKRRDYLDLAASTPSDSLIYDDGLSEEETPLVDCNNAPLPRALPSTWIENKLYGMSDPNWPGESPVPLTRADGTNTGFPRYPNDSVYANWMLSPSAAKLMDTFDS

Row | Structure (SMILES) | melting point | inhibition at 10 µM (VEGFR-2 (KDR)) | also measured
1 | CCOC(=O)c1c(C)oc2ncnc(Nc3ccc(NC(=O)Nc4ccc(C)c(Cl)c4)cc3)c12 [Compound 15f] | 254 to 256 °C | – | IC50 (VEGFR-2 (KDR)): 2100 nM; activity at 10 µM [1]: 97.7%; inhibition at 10 µM [1]: 2.32%
2 | CCOC(=O)c1c(C)oc2ncnc(Nc3ccc(NC(=O)Nc4ccc(Cl)cc4)cc3)c12 [Compound 15e] | 262 to 265 °C | 14% | –
3 | CN[C@@H]1C[C@H]2O[C@@](C)([C@@H]1OC)n1c3ccccc3c3c4c(c5c6ccccc6n2c5c31)C(=O)NC4 [Staurosporine, reference compound] | – | – | inhibition at 1 µM (c-Src; read-out: Inhibition %, c-Src, reference inhibitor): 98%
4 | CCOC(=O)c1c(C)oc2ncnc(Nc3ccc(NC(=O)c4cccc(Cl)c4)cc3)c12 [Compound 13a] | 232 to 236 °C | 8% | –
5 | CCOC(=O)c1c(C)oc2ncnc(Nc3ccc(NC(=O)Nc4cccc(Br)c4)cc3)c12 [Compound 15h] | 224 to 228 °C | 45% | –
6 | CCOC(=O)c1c(C)oc2ncnc(Oc3ccc(NC(=O)Nc4ccc(C)c(Cl)c4)cc3)c12 [Compound 16e] | – | > 70% | IC50 (VEGFR-2 (KDR)): 122 nM; inhibition at 10 µM (c-Kit): 72%; inhibition at 10 µM (c-Raf): 53%; inhibition at 10 µM (c-Src): 1%; inhibition at 10 µM (RET): 84%; activity at 10 µM [1]: 88.9%; inhibition at 10 µM [1]: 11.1%
7 | Cc1cccc(NC(=O)Nc2ccc(Nc3ncnc4sc5c(c34)CCCC5)cc2)c1 [Compound 20b] | > 250 °C | 47% | –
8 | CCOC(=O)c1c(C)oc2ncnc(Nc3ccc(C(=O)Nc4ccc(Cl)c(C(F)(F)F)c4)cc3)c12 [Compound 14d] | 238 to 240 °C | 14% | –
9 | O=C(Nc1ccc(Cl)cc1)Nc1ccc(Nc2ncnc3sc4c(c23)CCCC4)cc1 [Compound 20e] | > 300 °C | 32% | –
10 | CCOC(=O)c1c(C)oc2ncnc(Nc3ccc(NC(=O)Nc4ccccc4)cc3)c12 [Compound 15a] | – | 19% | –
11 | CCOC(=O)c1c(C)oc2ncnc(Nc3ccc(NC(=O)c4ccc(Cl)cc4)cc3)c12 [Compound 13b] | > 250 °C | 15% | –
12 | CC(=O)c1cccc(NC(=O)Nc2ccc(Nc3ncnc4sc5c(c34)CCCC5)cc2)c1 [Compound 20g] | 265 to 269 °C | > 70% | IC50 (VEGFR-2 (KDR)): 1500 nM; activity at 10 µM [1]: 29.2%; inhibition at 10 µM [1]: 70.8%
13 | CCOC(=O)c1c(C)oc2ncnc(Nc3ccc(NC(=O)Nc4cccc(C(C)=O)c4)cc3)c12 [Compound 15g] | 240 to 244 °C | > 70% | –
14 | CCOC(=O)c1c(C)oc2ncnc(Nc3ccc(C(=O)Nc4ccc(C)cc4)cc3)c12 [Compound 14c] | 235 to 238 °C | 14% | –
15 | CCOC(=O)c1c(C)oc2ncnc(Nc3ccc(NC(=O)Nc4cccc(OC)c4)cc3)c12 [Compound 15c] | 220 to 222 °C | 62% | –
16 | CNC(=O)c1cc(Oc2ccc(NC(=O)Nc3ccc(Cl)c(C(F)(F)F)c3)cc2)ccn1.Cc1ccc(S(=O)(=O)O)cc1 [Sorafenib p-toluenesulfonate, sorafenib p-toluenesulfonate, reference compound] | – | – | TGI (%) [2]: 80.8%
17 | CCOC(=O)c1c(C)oc2ncnc(Oc3ccc(NC(=O)Nc4cccc(OC)c4)cc3)c12 [Compound 16c] | – | – | IC50 (VEGFR-2 (KDR)): 551 nM; activity at 10 µM [1]: 32.1%; inhibition at 10 µM [1]: 67.9%
18 | CCOC(=O)c1c(C)oc2ncnc(Oc3ccc(NC(=O)Nc4ccc(Cl)cc4)cc3)c12 [Compound 16d] | 215 to 219 °C | 40% | –
19 | CCOC(=O)c1c(C)oc2ncnc(Nc3ccc(NC(=O)Nc4cccc(C)c4)cc3)c12 [Compound 15b] | > 250 °C | – | IC50 (VEGFR-2 (KDR)): 946 nM; activity at 10 µM [1]: 0.5%; inhibition at 10 µM [1]: 99.5%
20 | CCOC(=O)c1c(C)oc2ncnc(Oc3ccc(NC(=O)Nc4ccccc4)cc3)c12 [Compound 16a] | 183 to 185 °C | 27% | –
21 | CCOC(=O)c1c(C)oc2ncnc(Oc3ccc(NC(=O)Nc4cccc(C)c4)cc3)c12 [Compound 16b] | 116 to 119 °C | > 70% | IC50 (VEGFR-2 (KDR)): 1000 nM; activity at 10 µM [1]: 73.3%; inhibition at 10 µM [1]: 26.6%
22 | Cc1ccc(NC(=O)Nc2ccc(Nc3ncnc4sc5c(c34)CCCC5)cc2)cc1Cl [Compound 20f] | > 300 °C | > 70% | –
